# Assays:
# Type in all cases: cell-based
# [1] = test system: Staphylococcus aureus SFL 64; assay: Disc agar diffusion assay
# Procedure: (§1) As a further test of an embodiment, the antibacterial properties of EIPE-1 were tested across a large panel of organisms. EIPE-1 was dissolved in DMSO, impregnated onto sterile filter paper disks, and DMSO served as the untreated control according to the following procedure: • 1. Prepare a 2.5 μg/μL stock solution of EIPE-1 by micro pipetting 200 μL of DMSO into 2.0 mL Eppendorf Tube containing 0.5 mg of EIPE-1. Dissolve with vortex agitation and store at 4° C. • 2. Use forceps to pick up sterile 6.0 mm blank paper disks. Make sure to touch only one side of disc as lightly as possible. While holding blank paper disc, deliver 10.0 μL of the 2.5 μg/μL EIPE-1 solution by touching the micropipette tip to the center of the blank paper disc. Lean the impregnated disc up against the side of a small sterile glass petri dish. Follow same procedure for DMSO control. Allow disks several hours to dry under flowing sterile air. • 3. Inoculate starter cultures using cells from working culture cultivated on Mueller-Hinton Agar (MHA; Difco Laboratories). Starters consist of ˜20 mL of Mueller-Hinton Broth (MHB; Difco Laboratories) in 125-mL culture flasks. Incubate starter cultures in an Excella E24 Benchtop Incubator Shaker (New Brunswick Scientific Co., Inc., Edison, N.J., USA) at 37° C. and 180 rpm for 15-18 hours. • 4. Pour at least 5.0 mL of NMB into 18-mL Kimax tubes. Use a Pasteur pipette to deliver enough of the starter culture cell suspension to reach an optical density (OD620) of 0.025 (Spectronic™ 20 optical spectrophotometer; Thermo Electron Corp., Madison, Wis., USA). Ensure that both transmittance and absorbance are set to 0.0 using a blank NMB sample. Incubate in rotary shaking incubator at 37° C. and 180 rpm until optical density reaches 0.1. • 5. Deliver 100 μL of test culture to the middle of a small 100 mm×15 mm Petri dish containing ˜⅛ in thickness of MHA. • 6. Saturate a sterile cotton swab with MHB by dipping the cotton swab into KIMAX® tube with MHB and then touch the swab to the north, south, east, and west side of the KIMAX® tube to remove excess broth. • 7. Streak the inoculum as follows: • a. Start in the center and make four straight lines to the 12, 3, 6, and 9 o'clock position on the petri dish. • b. Start at the 12 o'clock position and streak side to side all the way down the plate to the 6 o'clock position. […] Rotate the petri dish 90° and complete the same side to side streak all the way down the petri dish. • d. Complete step c. twice more. • e. Rotate petri dish 45° and complete the side-to-side streak. • f. Rotate petri dish 90° and complete the side-to-side streak. • 8. Use sterile forceps to transfer the DMSO control paper disc onto the agar surface and pat the paper disc down to ensure flush contact. Use the same technique to deliver EIPE-1 paper disc. • 9. Place petri dish at 4° C. for 1.0 hour to allow EIPE-1 diffusion in the absence of growth. • 10. Incubate petri dish at 37° C. for 18 hours. • 11. Observe for zones of growth inhibition surrounding disks. Measure diameter with electronic caliper and subtract 6.0-mm disc diameter. Results • a) Each organism was initially tested once to serve as a screen.
# [2] = test system: Staphylococcus aureus SFL 8; assay: Disc agar diffusion assay
# Procedure: as §1
# [3] = test system: Serratia odorifera ATCC 53077; assay: Disc agar diffusion assay; details: Group 1: Gram-negative organisms
# Procedure: as §1
# Lactococcus lactis = assay: Disc agar diffusion assay
# Procedure: as §1
# Enterococcus faecalis = assay: Disc agar diffusion assay; details: Group 2: Gram-positive organisms
# Procedure: as §1
# [4] = test system: Serratia marcescens CO1-A; assay: Disc agar diffusion assay; details: Group 1: Gram-negative organisms
# Procedure: as §1
# [5] = test system: Escherichia coli ATCC 25922; assay: Disc agar diffusion assay; details: Group 1: Gram-negative organisms
# Procedure: as §1
# [6] = test system: Serratia rubidaea ATCC 27593; assay: Disc agar diffusion assay; details: Group 1: Gram-negative organisms
# Procedure: as §1
# [7] = test system: Serratia marcescens ATCC 13880; assay: Disc agar diffusion assay; details: Group 1: Gram-negative organisms
# Procedure: as §1
# Bacillus cereus = assay: Disc agar diffusion assay
# Procedure: as §1
# Escherichia coli K12413 = assay: Disc agar diffusion assay; details: Group 1: Gram-negative organisms
# Procedure: as §1
# [8] = test system: Staphylococcus aureus ATCC 29213; assay: Disc agar diffusion assay
# Procedure: as §1
# [9] = test system: Pseudomonas aeruginosa ATCC 27853; assay: Disc agar diffusion assay; details: Group 1: Gram-negative organisms
# Procedure: as §1
# Micrococcus luteus = assay: Disc agar diffusion assay
# Procedure: as §1
# [10] = test system: Staphylococcus aureus T-5706; assay: Disc agar diffusion assay
# Procedure: as §1
# [11] = test system: Serratia plymuthica ATCC 183; assay: Disc agar diffusion assay; details: Group 1: Gram-negative organisms
# Procedure: as §1
# Deinoccus radiophilus = assay: Disc agar diffusion assay; details: Group 2: Gram-positive organisms
# Procedure: as §1
# Serratia marcescens db11 = assay: Disc agar diffusion assay; details: Group 1: Gram-negative organisms
# Procedure: as §1
# Serratia marcescens 8100 = assay: Disc agar diffusion assay; details: Group 1: Gram-negative organisms
# Procedure: as §1
# [12] = test system: Staphylococcus epidermidis; assay: Disc agar diffusion assay
# Procedure: as §1
# [13] = test system: Pasteurella moltocida P-1581; assay: Disc agar diffusion assay; details: Group 1: Gram-negative organisms
# Procedure: as §1
# [14] = test system: Serratia fonticola ATCC 9844; assay: Disc agar diffusion assay; details: Group 1: Gram-negative organisms
# Procedure: as §1
# [15] = test system: Serratia entomophila ATCC 43705; assay: Disc agar diffusion assay; details: Group 1: Gram-negative organisms
# Procedure: as §1
# S. epidermidis SK01 = assay: MIC and MBC values (Table 2); details: Staphylococcus epidermidis
# [16] = Group 3: Gram-positive organisms
# [17] = Group 2: Gram-positive organisms
smiles,measurement,setting,value
"COC(=O)c1cc2c(C#Cc3ccc(OCCC[N+](C)(C)C)cc3)c(OC)c(OC)c(C#Cc3ccc(OCCC[N+](C)(C)C)cc3)c2n1C [EIPE-1, 3,3′-((((5,6-dimethoxy-2-(methoxycarbonyl)-1-methyl-1H-indole-4,7-diyl)bis(ethyne-2,1-diyl))bis(4,1-phenylene))bis(oxy))bis(N,N,N-trimethylpropan-1-aminium) iodide]",susceptibility group in disc diffusion screen,[1]; [16],susceptible
same,zone of inhibition at 25 µg/disc,"[1]; Staphylococcus aureus, SFL64, S. aureus SFL 64, 25 μg per disk, zone minus disk diameter (6.0mm), read-out: Inhibition Zone Diameter (mm) ± SD",2.5 ± 1.5 mm
same,zone of inhibition at 250 µg/disc,"[1]; Staphylococcus aureus, SFL64, S. aureus SFL 64, 250 μg per disk, zone minus disk diameter (6.0mm), read-out: Inhibition Zone Diameter (mm) ± SD",2.5 ± 0.2 mm
same,susceptibility group in disc diffusion screen,[2]; [16],susceptible
same,zone of inhibition at 25 µg/disc,"[2]; Staphylococcus aureus, SFL8, S. aureus SFL 8, 25 μg per disk, zone minus disk diameter (6.0mm), read-out: Inhibition Zone Diameter (mm) ± SD",2.4 ± 1.3 mm
same,zone of inhibition at 250 µg/disc,"[2]; Staphylococcus aureus, SFL8, S. aureus SFL 8, 250 μg per disk, zone minus disk diameter (6.0mm), read-out: Inhibition Zone Diameter (mm) ± SD",2.4 ± 0.3 mm
same,susceptibility group in disc diffusion screen,[3],resistant
same,susceptibility group in disc diffusion screen,Lactococcus lactis; [17],resistant
same,zone of inhibition at 25 µg/disc,"Lactococcus lactis; Lactococcus lactis, L. lactis, 25 μg per disk, zone minus disk diameter (6.0mm), read-out: Inhibition Zone Diameter (mm) ± SD",0.4 ± 0.6 mm
same,susceptibility group in disc diffusion screen,Enterococcus faecalis,resistant
same,susceptibility group in disc diffusion screen,[4],resistant
same,susceptibility group in disc diffusion screen,[5],resistant
same,susceptibility group in disc diffusion screen,[6],resistant
same,susceptibility group in disc diffusion screen,[7],resistant
same,zone of inhibition at 25 µg/disc,"Bacillus cereus; Bacillus cereus, B. cereus, 25 μg per disk, zone minus disk diameter (6.0mm), read-out: Inhibition Zone Diameter (mm) ± SD",0 mm
same,susceptibility group in disc diffusion screen,Bacillus cereus; [17],resistant
same,susceptibility group in disc diffusion screen,Escherichia coli K12413,resistant
same,susceptibility group in disc diffusion screen,[8]; [16],susceptible
same,zone of inhibition at 25 µg/disc,"[8]; Staphylococcus aureus, ATCC29213, S. aureus ATCC 29213, 25 μg per disk, zone minus disk diameter (6.0mm), read-out: Inhibition Zone Diameter (mm) ± SD",2.2 ± 0.6 mm
same,zone of inhibition at 250 µg/disc,"[8]; Staphylococcus aureus, ATCC29213, S. aureus ATCC 29213, 250 μg per disk, zone minus disk diameter (6.0mm), read-out: Inhibition Zone Diameter (mm) ± SD",2.9 ± 0.3 mm
same,susceptibility group in disc diffusion screen,[9],resistant
same,susceptibility group in disc diffusion screen,Micrococcus luteus; [17],resistant
same,zone of inhibition at 25 µg/disc,"Micrococcus luteus; Micrococcus luteus, M. luteus, 25 μg per disk, zone minus disk diameter (6.0mm), read-out: Inhibition Zone Diameter (mm) ± SD",1 ± 1 mm
same,zone of inhibition at 250 µg/disc,"Micrococcus luteus; Micrococcus luteus, M. luteus, 250 μg per disk, zone minus disk diameter (6.0mm), read-out: Inhibition Zone Diameter (mm) ± SD",2.2 ± 1.9 mm
same,susceptibility group in disc diffusion screen,[10]; [16],susceptible
same,zone of inhibition at 25 µg/disc,"[10]; Staphylococcus aureus, T5706, S. aureus T-5706, 25 μg per disk, zone minus disk diameter (6.0mm), read-out: Inhibition Zone Diameter (mm) ± SD",2.1 ± 0.3 mm
same,zone of inhibition at 250 µg/disc,"[10]; Staphylococcus aureus, T5706, S. aureus T-5706, 250 μg per disk, zone minus disk diameter (6.0mm), read-out: Inhibition Zone Diameter (mm) ± SD",2.2 ± 0.2 mm
same,susceptibility group in disc diffusion screen,[11],resistant
same,susceptibility group in disc diffusion screen,Deinoccus radiophilus,resistant
same,susceptibility group in disc diffusion screen,Serratia marcescens db11,resistant
same,susceptibility group in disc diffusion screen,Serratia marcescens 8100,resistant
same,susceptibility group in disc diffusion screen,[12]; [16],susceptible
same,zone of inhibition at 25 µg/disc,"[12]; Staphylococcus epidermidis, S. epidermidis, 25 μg per disk, zone minus disk diameter (6.0mm), read-out: Inhibition Zone Diameter (mm) ± SD",2.6 ± 0.3 mm
same,zone of inhibition at 250 µg/disc,"[12]; Staphylococcus epidermidis, S. epidermidis, 250 μg per disk, zone minus disk diameter (6.0mm), read-out: Inhibition Zone Diameter (mm) ± SD",3.3 ± 0.5 mm
same,susceptibility group in disc diffusion screen,[13],resistant
same,susceptibility group in disc diffusion screen,[14],resistant
same,susceptibility group in disc diffusion screen,[15],resistant
same,MBC,S. epidermidis SK01,2 µg/mL
same,MIC,S. epidermidis SK01,1 µg/mL

# — patent US11730717B1, “Melanin-inspired antimicrobial” (The Board of Regents for the Oklahoma Agricultural and …, priority 2020, dated 2023)
